Source: patent publication US12285460B2, “Pharmaceutical compositions” (RHYTHM PHARMACEUTICALS, INC., priority 2013, dated 2025)
Bridge positions count the residues as written; N and C are the ends. Square brackets hold non-standard residues; d marks the D form. Peptide text beside a SMILES is read from it.

Tests used:
Format in all cases: cell-based
[1] = target: T1, MC5R (Homo sapiens, UniProt P33032); test: cAMP assay (EC50), MC5R; conditions: EC50(MC5R)/EC50(MC4R)
T1 construct: host or cells: CHO-K1 (ECL assay)
Description: Stimulation of intracellular cyclic AMP (cAMP) levels by the peptides is determined in a dose dependent manner by an electrochemiluminescence (ECL) assay (Meso Scale Discovery, Gaithersburg, MD, USA; referred to hereinafter as “MSD”). Briefly, the CHO-K1 cells stably expressing the hMC receptor subtypes are suspended in RMPI 1640® assay buffer (RMPI 1640 buffer contains 0.5 mM IBMX, and 0.2% protein cocktail (MSD blocker A)). About 7,000 cells/well of the transgenic CHO-K1 cells stably expressing hMC receptor subtypes 1, 3, 4 or 5 are dispensed in 384-well Multi-Array plates (MSD) containing integrated carbon electrodes and coated with anti-cAMP antibody. Increasing concentrations of the test compounds are added and the cells are incubated for approximately 40 minutes at 37° C. A cell lysis buffer (HEPES-buffered saline solution with MgCl2 and Triton X-100® at pH 7.3) containing 0.2% protein cocktail and 2.5 nM TAG™ ruthenium-labeled cAMP (MSD) is added and the cells are incubated for approximately 90 minutes at room temperature. At the end of the second incubation period, the read buffer (Tris-buffered solution containing an ECL co-reactant and Triton X-100 at pH 7.8) is added and the cAMP levels in the cell lysates are immediately determined by ECL detection with a Sector Imager 6000 Reader® (MSD). Data are analyzed using a computer-assisted non-linear regression analysis (XL fit; IDBS) and reported as either an EC50 value. […]
(§1) A chemiluminescence readout system that uses an enzyme fragment complementation (EFC) system with β-galactosidase (β-Gal) as the functional reporter system was used. This assay system for various melanocortin receptor systems is commercially available (cAMP Hunter GPCR assay system, Discoverx Corp, Fremont, CA). This assay utilizes the β-Gal enzyme that is split into two complementary portions; EA for Enzyme Acceptor and ED for Enzyme Donor. In the assay, the ED portion fused to cAMP is made to compete with cAMP generated by cells for binding to a cAMP-specific antibody. The EA is then added to form active β-Gal with any unbound ED-cAMP. This active enzyme then converts a chemiluminescent substrate to generate an output signal that is recorded on a standard microplate reader.
(§2) Briefly, 10000 cells per well are plated overnight and each well (cells incubated with 10 μl assay buffer) is then incubated with 4× serial concentration of the test compound in the cell assay buffer (5 μL) and cAMP antibody reagent (5 μL) for 30 min at 37° C. The cell lysis buffer (20 μL) containing ED-cAMP coupled enzyme fragment and the reporter substrate (Emerald II-Galacton Star, 5:1) is then added and incubated for 60 min at room temperature. Next, 20 μL of EA β-Gal fragment reagent is added.

[2] = target: T2, MC1R (Homo sapiens, UniProt Q01726); test: cAMP assay (EC50), MC1R; conditions: EC50(MC1R)/EC50(MC4R)
T2 construct: host or cells: CHO-K1 (ECL assay)
Description: (§3) Stimulation of intracellular cyclic AMP (cAMP) levels by the peptides is determined in a dose dependent manner by an electrochemiluminescence (ECL) assay (Meso Scale Discovery, Gaithersburg, MD, USA; referred to hereinafter as “MSD”). Briefly, the CHO-K1 cells stably expressing the hMC receptor subtypes are suspended in RMPI 1640® assay buffer (RMPI 1640 buffer contains 0.5 mM IBMX, and 0.2% protein cocktail (MSD blocker A)). About 7,000 cells/well of the transgenic CHO-K1 cells stably expressing hMC receptor subtypes 1, 3, 4 or 5 are dispensed in 384-well Multi-Array plates (MSD) containing integrated carbon electrodes and coated with anti-cAMP antibody. Increasing concentrations of the test compounds are added and the cells are incubated for approximately 40 minutes at 37° C. A cell lysis buffer (HEPES-buffered saline solution with MgCl2 and Triton X-100® at pH 7.3) containing 0.2% protein cocktail and 2.5 nM TAG™ ruthenium-labeled cAMP (MSD) is added and the cells are incubated for approximately 90 minutes at room temperature. At the end of the second incubation period, the read buffer (Tris-buffered solution containing an ECL co-reactant and Triton X-100 at pH 7.8) is added and the cAMP levels in the cell lysates are immediately determined by ECL detection with a Sector Imager 6000 Reader® (MSD). Data are analyzed using a computer-assisted non-linear regression analysis (XL fit; IDBS) and reported as either an EC50 value.
(§4) Human MC4-R transfected cells are grown to confluence in 96 well plates (plating approximately 250,000 cells per well). The cells are treated in triplicate sets with 0.2 mM isobutylmethylxanthine (IBMX) and graded concentrations of the peptide or alternatively the peptide in the presence of 20 nM NDP-MSH. Cells similarly treated but with only 20 nM NDP-MSH serve as positive controls in a volume of 200 μL. A buffer blank serving as a negative control is also included. After incubation of one hour at 37° C., the cells are lysed by the addition of 50 μL of a cell lysis buffer. Total cAMP accumulated in 250 μL of this incubation medium is quantitated using a commercially available low pH cAMP assay kit (Amersham BioSciences) as per procedure specified by the kit supplier. […] The data for agonist is plotted and curve fitted to determine the EC50 value. A peptide showing accumulation in the same range as the negative control (buffer blank in the absence of alpha-MSH) is ineffective at the test concentration. A peptide showing attenuated accumulation is considered to be an antagonist if there is inhibition in cAMP when alpha-MSH is also present in the assay. Similar assay can be performed with hMC-1R, hMC-3R, and hMC-5R cells.
as §1, with “ED-cAMP.” for “ED-cAMP. This active enzyme then converts a chemiluminescent substrate to generate an output signal that is recorded on a standard microplate reader.”
as §2

[3] = target: T3, MC3R (Homo sapiens, UniProt P41968); test: cAMP assay (EC50), MC3R; conditions: EC50(MC3R)/EC50(MC4R)
T3 construct: host or cells: CHO-K1 (ECL assay)
Description: as §3, §4
as §1, with “ED-cAMP.” for “ED-cAMP. This active enzyme then converts a chemiluminescent substrate to generate an output signal that is recorded on a standard microplate reader.”
as §2

T2 sequence (Q01726 whole entry): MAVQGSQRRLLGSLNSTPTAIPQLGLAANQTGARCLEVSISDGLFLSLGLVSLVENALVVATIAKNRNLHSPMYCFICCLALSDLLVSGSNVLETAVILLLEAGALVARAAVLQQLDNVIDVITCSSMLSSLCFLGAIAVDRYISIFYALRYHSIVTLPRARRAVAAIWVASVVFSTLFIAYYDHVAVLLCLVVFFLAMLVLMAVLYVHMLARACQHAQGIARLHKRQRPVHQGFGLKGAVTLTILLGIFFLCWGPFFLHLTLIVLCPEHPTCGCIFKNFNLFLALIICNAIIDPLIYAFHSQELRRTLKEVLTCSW
T1 sequence (P33032 whole entry): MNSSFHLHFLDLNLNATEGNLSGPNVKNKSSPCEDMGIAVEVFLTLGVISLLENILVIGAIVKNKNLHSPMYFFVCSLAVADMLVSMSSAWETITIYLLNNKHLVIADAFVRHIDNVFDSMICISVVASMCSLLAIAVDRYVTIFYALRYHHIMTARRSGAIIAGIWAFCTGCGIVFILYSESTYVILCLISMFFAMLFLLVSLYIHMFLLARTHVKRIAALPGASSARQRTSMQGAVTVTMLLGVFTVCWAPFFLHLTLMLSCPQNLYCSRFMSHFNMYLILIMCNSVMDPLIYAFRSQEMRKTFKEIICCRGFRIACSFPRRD
T3 sequence (P41968 whole entry): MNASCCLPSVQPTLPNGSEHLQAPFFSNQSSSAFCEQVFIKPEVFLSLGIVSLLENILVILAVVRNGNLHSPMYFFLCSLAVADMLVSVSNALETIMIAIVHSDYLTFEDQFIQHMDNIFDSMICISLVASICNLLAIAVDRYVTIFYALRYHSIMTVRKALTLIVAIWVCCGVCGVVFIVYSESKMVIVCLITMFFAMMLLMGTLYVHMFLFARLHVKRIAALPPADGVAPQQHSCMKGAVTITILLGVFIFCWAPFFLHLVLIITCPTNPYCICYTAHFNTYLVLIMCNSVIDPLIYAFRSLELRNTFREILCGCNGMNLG

| Structure (SMILES) | Ratios of EC50 values MC5/4 [1] | Ratios of EC50 values MC1/4 [2] | Ratios of EC50 values MC3/4 [3] |
| --- | --- | --- | --- |
| CC(=O)N[C@@H](CCCNC(=N)N)C(=O)N[C@H]1CSSC[C@@H](C(N)=O)NC(=O)[C@H](Cc2c[nH]c3ccccc23)NC(=O)[C@H](CCCNC(=N)N)NC(=O)[C@@H](Cc2ccccc2)NC(=O)[C@H](Cc2c[nH]cn2)NC(=O)[C@@H](CC(C)C)NC1=O [Compound 1, Ac-Arg-cyclo[Cys-D-Leu-His-D-Phe-Arg-Trp-Cys]-NH2] | 130 | 0.68 | 1.13 |
| CC[C@@H](C)[C@H]1NC(=O)[C@@H](NC(=O)[C@H](CCCNC(=N)N)NC(C)=O)CSSC[C@@H](C(N)=O)NC(=O)[C@H](Cc2c[nH]c3ccccc23)NC(=O)[C@H](CCCNC(=N)N)NC(=O)[C@@H](Cc2ccccc2)NC(=O)[C@H](Cc2c[nH]cn2)NC1=O [Compound 2, Ac-Arg-cyclo[Cys-D-Ile-His-D-Phe-Arg-Trp-Cys]-NH2] | 420 | 0.69 | 0.96 |
| CC(=O)N[C@@H](CCCNC(=N)N)C(=O)N[C@H]1CSSC[C@@H](C(N)=O)NC(=O)[C@H](Cc2c[nH]c3ccccc23)NC(=O)[C@H](CCCNC(=N)N)NC(=O)[C@@H](Cc2ccccc2)NC(=O)[C@H](Cc2c[nH]cn2)NC(=O)[C@@H](C(C)(C)C)NC1=O [Compound 3, Ac-Arg-cyclo[Cys-D-Tie-His-D-Phe-Arg-Trp-Cys]-NH2] | 930 | 1 | 1 |
| CC(=O)N[C@@H](CCCNC(=N)N)C(=O)N[C@H]1CSSC[C@@H](C(N)=O)NC(=O)[C@H](Cc2c[nH]c3ccccc23)NC(=O)[C@H](CCCNC(=N)N)NC(=O)[C@@H](Cc2ccccc2)NC(=O)[C@H](Cc2c[nH]cn2)NC(=O)[C@@H](C(C)C)NC1=O [Compound 4, Ac-Arg-cyclo[Cys-D-Val-His-D-Phe-Arg-Trp-Cys]-NH2] | 584 | 0.93 | 1.19 |
| CC(=O)N[C@@H](CCCNC(=N)N)C(=O)N[C@H]1CSSC[C@@H](C(N)=O)NC(=O)[C@H](Cc2c[nH]c3ccccc23)NC(=O)[C@H](CCCNC(=N)N)NC(=O)[C@@H](Cc2ccccc2)NC(=O)[C@H](Cc2cncn2C)NC(=O)[C@@H](C)NC1=O [Compound 5, Ac-Arg-cyclo[Cys-D-Ala-His(3-Me)-D-Phe-Arg-Trp-Cys]-NH2] | 945 | 4 | 350 |
| CC(=O)N[C@@H](CCCNC(=N)N)C(=O)N[C@H]1CSSC[C@@H](C(N)=O)NC(=O)[C@H](Cc2c[nH]c3ccccc23)NC(=O)[C@H](CCCNC(=N)N)NC(=O)[C@@H](Cc2ccccc2)NC(=O)[C@H](Cc2cn(C)cn2)NC(=O)[C@@H](C)NC1=O [Compound 6, Ac-Arg-cyclo[Cys-D-Ala-His(1-Me)-D-Phe-Arg-Trp-Cys]-NH2] | 662 | 40 | 6 |
| CC(=O)N[C@@H](CCCNC(=N)N)C(=O)N[C@H]1CSSC[C@@H](C(N)=O)NC(=O)[C@H](Cc2c[nH]c3ccccc23)NC(=O)[C@H](CCCNC(=N)N)NC(=O)[C@@H](Cc2ccccc2)NC(=O)[C@H](Cc2c[nH]c3ccccc23)NC(=O)[C@@H](C)NC1=O [Compound 7, Ac-Arg-cyclo[Cys-D-Ala-Trp-D-Phe-Arg-Trp-Cys]-NH2] (Ac-RC[dA]W[dF]RWC-NH2; disulfide 2-8) | 7 | 8 | >290 |
| CC(=O)N[C@@H](CCCNC(=N)N)C(=O)N[C@H]1CSSC[C@@H](C(N)=O)NC(=O)[C@H](Cc2c[nH]c3ccccc23)NC(=O)[C@H](CCCNC(=N)N)NC(=O)[C@@H](Cc2ccccc2)NC(=O)[C@H](CCC(N)=O)NC(=O)[C@@H](C)NC1=O [Compound 8, Ac-Arg-cyclo[Cys-D-Ala-Gln-D-Phe-Arg-Trp-Cys]-NH2] (Ac-RC[dA]Q[dF]RWC-NH2; disulfide 2-8) | 155 | 40 | 5 |
| CC(=O)N[C@@H](CCCNC(=N)N)C(=O)N[C@H]1CSSC[C@@H](C(N)=O)NC(=O)[C@H](Cc2c[nH]c3ccccc23)NC(=O)[C@H](CCCNC(=N)N)NC(=O)[C@@H](Cc2ccccc2)NC(=O)[C@H](CC(N)=O)NC(=O)[C@@H](C)NC1=O [Compound 9, Ac-Arg-cyclo[Cys-D-Ala-Asn-D-Phe-Arg-Trp-Cys]-NH2] (Ac-RC[dA]N[dF]RWC-NH2; disulfide 2-8) | 530 | 90 | 30 |
| CC(=O)N[C@@H](CCCNC(=N)N)C(=O)N[C@H]1CSSC[C@@H](C(N)=O)NC(=O)[C@H](Cc2c[nH]c3ccccc23)NC(=O)[C@H](CCCNC(=N)N)NC(=O)[C@@H](Cc2ccccc2)NC(=O)[C@H](CCCNC(=N)N)NC(=O)[C@@H](C)NC1=O [Compound 10, Ac-Arg-cyclo[Cys-D-Ala-Arg-D-Phe-Arg-Trp-Cys]-NH2] (Ac-RC[dA]R[dF]RWC-NH2; disulfide 2-8) |  | 2.31 | 1.45 |
| CC(=O)N[C@@H](CCCNC(=N)N)C(=O)N[C@H]1CSSC[C@@H](C(N)=O)NC(=O)[C@H](Cc2c[nH]c3ccccc23)NC(=O)[C@H](CCCNC(=N)N)NC(=O)[C@@H](Cc2ccccc2)NC(=O)[C@H](Cc2ccc(O)cc2)NC(=O)[C@@H](C)NC1=O [Compound 11, Ac-Arg-cyclo[Cys-D-Ala-Tyr-D-Phe-Arg-Trp-Cys]-NH2] (Ac-RC[dA]Y[dF]RWC-NH2; disulfide 2-8) |  | 6.67 | >22.2 |
